Assay: Dissolution rate into the solvent
Format: physicochemical
Settings: compared with α-type:β-type in a range of 98:2 to 85:15

- dissolution rate for dissolution into the solvent: slower
Structure (SMILES): O=c1n(CC2CO2)c(=O)n(CC2CO2)c(=O)n1CC1CO1 (stereo not shown) [Tris-(2,3-epoxypropyl)-isocyanurate]
